Data as given in EP3057950B1, “PHENYL LINKED QUINOLINYL MODULATORS OF ROR-GAMMA-T” (Janssen Pharmaceutica NV, priority 2013, dated 2015).
Structures can show the parent of a compound that is named as a salt. Where two headings read alike, the source gives them in different places.

How the values were obtained:
[1] = target: T1, wild type human RORγt LBD (Homo sapiens, UniProt P51449); test: RORγt Reporter Assay (GAL4-RORγt LBD luciferase in HEK293T cells); format: cell-based; conditions: for IC50: compounds for 24 hours; for inhibition at 6 µM: HEK-293T
T1 construct: expressed in transfected cells; host or cells: HEK293T
T1 sequence (P51449 269-508 limits assumed): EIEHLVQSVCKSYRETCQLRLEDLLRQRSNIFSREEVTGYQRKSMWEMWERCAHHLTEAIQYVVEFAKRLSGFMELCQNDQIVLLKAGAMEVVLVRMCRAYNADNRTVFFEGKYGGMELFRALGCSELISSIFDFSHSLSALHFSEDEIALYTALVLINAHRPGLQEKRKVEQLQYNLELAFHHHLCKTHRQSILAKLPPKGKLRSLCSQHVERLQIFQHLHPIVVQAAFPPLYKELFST
Text: A reporter assay was used to test functional activity of RORγt modulatory compounds on transcriptional activation driven by the RORγt LBD. Cells used in the assay were co-transfected with two constructs. The first construct, pBIND-RORγt LBD, contained the wild type human RORγt LBD fused to the DNA binding domain of the GAL4 protein. The second construct, pGL4.31 (Promega Cat no. C935A), contained multiple GAL4 responsive DNA elements upstream of firefly luciferase. […] The mutant construct was called pBIND-RORγt-AF2.
The pBIND vector contains the GAL4 DNA Binding Domain (GAL4 DBD) and the renilla luciferase gene under control of the SV40 promoter. Renilla luciferase expression serves as a control for transfection efficiency and cell viability.
The reporter assay was performed by transiently transfecting HEK293T cells with 5 µg of pBIND-RORγt LBD or pBIND-RORγt LBD-AF2 and 5 µg pGL4.31 (Promega Cat no. C935A) using Fugene 6 (Invitrogen Cat no. E2691) at a 1:6 ratio of DNA: Fugene 6 in a T-75 flask in which cells were at least 80% confluent. Twenty four hours after bulk transfection, cells were plated into 96-well plates at 50,000 cells/well in phenol-red free DMEM containing 5% Lipid Reduced FCS and Pen/Strep. Six hours after plating, cells were treated with compounds for 24 hours. Media was removed and cells were lysed with 50 µL 1x Glo Lysis Buffer (Promega). Dual Glo Luciferase Reagent (50 µL/well) was then added and firefly luciferase luminescence was read on an Envision after a ten minute incubation. Finally, Stop and Glo reagent (50 µL/well) was added and renilla luciferase luminescence was read on an Envision instrument after a ten minute incubation. To calculate the effect of compounds on RORγt activity, the ratio of firefly to renilla luciferase was determined and plotted against compound concentration. Agonist compounds increase RORγt-driven luciferase expression, and antagonist or inverse agonist compounds decrease luciferase expression.

[2] = target: T2, wild type human RORγt ligand binding domain (RORγt LBD) (Homo sapiens, UniProt P51449); test: RORγt ThermoFluor® Assay (thermal shift, binding affinity); conditions: pH 7.0, estimated from concentration response curves
T2 construct: His-tag (N); TurboTEV protease cleavage site (ENLYFQG) (N); made in house; host or cells: E. coli (pHIS1, modified pET expression vector)
T2 sequence (P51449 269-508 limits assumed): T1 sequence (P51449 269-508 limits assumed)
Method: This approach is applicable to a wide variety of systems, and rigorous in theoretical interpretation through quantitation of equilibrium binding constants (KD).
The shift in the melting point described as a ΔTm is proportional to the concentration and affinity of the ligand.
Protein and compound solutions are dispensed into black 384-well polypropylene PCR microplates (Abgene) and overlayed with silicone oil (1 µL, Fluka, type DC 200) to prevent evaporation.
Bar-coded assay plates are robotically loaded onto a thermostatically controlled PCR-type thermal block and then heated at a typical ramp-rate of 1 °C/min for all experiments. Fluorescence was measured by continuous illumination with UV light (Hamamatsu LC6) supplied via fiber optic and filtered through a band-pass filter (380-400 nm; >6 OD cutoff). Fluorescence emission of the entire 384-well plate was detected by measuring light intensity using a CCD camera (Sensys, Roper Scientific) filtered to detect 500 ± 25 nm, resulting in simultaneous and independent readings of all 384 wells. Images were collected at each temperature, and the sum of the pixel intensity in a given area of the assay plate was recorded versus temperature. Reference wells contained RORγt without compounds, and the assay conditions were as follows: • 0.065 mg/mL RORγt • 60 µM 1,8-ANS • 100 mM Hepes, pH 7.0 • 10 mM NaCl • 2.5 mM GSH • 0.002% Tween-20
Project compounds were arranged in a pre-dosed mother plate (Greiner Bio-one) wherein compounds are serially diluted in 100% DMSO by 1:2 from a high concentration of 10 mM over 12 columns within a series (column 12 is a reference well containing DMSO, no compound). The compounds were robotically dispensed directly into assay plates (1x = 46 nL) using a Hummingbird capillary liquid handling instrument (Digilab). Following compound dispense, protein and dye in buffer was added to achieve the final assay volume of 3 µL, followed by 1 µL of silicone oil.

[3] = HEK293T cells, read-out: RORγt reporter Assay, IC50
[4] = read-out: RORγt reporter Assay, % inhibition @ 6 µM, @ 6 µM, HEK293T cells

Row | IC50 [1, 3] | inhibition at 6 µM [1, 4] | Kd [2] | Structure (SMILES) | inhibition at 6 µM ([1]; read-out: RORγt reporter Assay, % inhibition @ 6 µM) | IC50 ([1]; RORγt reporter Assay, IC50 (µM), HEK293T cells)
1 | 0.017 µM | 103% | 0.00051 µM | CSc1nc2ccc(C(O)(c3sc(C)nc3C)c3cncn3C)cc2c(SC)c1-c1ccccc1 (stereo not drawn) [Example 42, (2,4-Bis(methylthio)-3-phenylquinolin-6-yl)(2,4-dimethylthiazol-5-yl)(1-methyl-1H-imidazol-5-yl)methanol•TFA] |  | 
2 | 0.039 µM | 98% | 0.0035 µM | CSc1nc2ccc(C(O)(c3sc(C)nc3C)c3cncn3C)cc2c(Cl)c1-c1ccccc1 (stereo not drawn) [Example 43, (4-Chloro-2-(methylthio)-3-phenylquinolin-6-yl)(2,4-dimethylthiazol-5-yl)(1-methyl-1H-imidazol-5-yl)methanol•TFA] |  | 
3 | 0.57 µM | 93% | 0.77 µM | Cn1cncc1C(O)(c1ccc(Cl)cc1)c1ccc2nc(OCC(F)(F)F)c(-c3ccccc3)c(Cl)c2c1 (stereo not drawn) [Example 45, (4-Chlorophenyl)[4-chloro-3-phenyl-2-(2,2,2-trifluoroethoxy)quinolin-6-yl](1-methyl-1H-imidazol-5-yl)methanol•TFA] |  | 
4 | 0.83 µM | 106% | 0.23 µM | CN(CCO)c1nc2ccc(C(O)(c3ccc(Cl)cc3)c3cncn3C)cc2c(Cl)c1-c1ccccc1 (stereo not drawn) [Example 46, 2-[{4-Chloro-6-[(4-chlorophenyl)(hydroxy)(1-methyl-1H-imidazol-5-yl)methyl]-3-phenylquinolin-2-yl}(methyl)amino]ethanol•TFA] |  | 
5 | 0.04 µM | 98% | 0.0083 µM | Cc1nc(C)c(C(O)(c2ccc3nc(C#N)c(-c4ccccc4)c(C#N)c3c2)c2cnnn2C)s1 (stereo not drawn) [Example 47a, 6-((2,4-Dimethylthiazol-5-yl)(hydroxy)(1-methyl-1H-1,2,3-triazol-5-yl)methyl)-3-phenylquinoline-2,4-dicarbonitrile] |  | 
6 | 0.67 µM | 103% | 0.81 µM | COCCOc1nc2ccc(C(O)(c3ccc(Cl)cc3)c3cncn3C)cc2c(Cl)c1-c1ccccc1 (stereo not drawn) [Example 48, [4-Chloro-2-(2-methoxyethoxy)-3-phenylquinolin-6-yl](4-chlorophenyl)(1-methyl-1H-imidazol-5-yl)methanol] |  | 
7 | 0.031 µM | 99% | 0.09 µM | COCCN(C)c1nc2ccc(C(O)(c3ccc(Cl)cc3)c3cncn3C)cc2c(Cl)c1-c1ccccc1 (stereo not drawn) [Example 50, {4-Chloro-2-[(2-methoxyethyl)(methyl)amino]-3-phenylquinolin-6-yl}(4-chlorophenyl)(1-methyl-1H-imidazol-5-yl)methanol] |  | 
8 | 1.1 µM | 96% | 1.1 µM | CCC(=O)NCCOc1nc2ccc(C(O)(c3ccc(Cl)cc3)c3cncn3C)cc2c(Cl)c1-c1ccccc1 (stereo not drawn) [Example 51, N-[2-({4-Chloro-6-[(4-chlorophenyl)(hydroxy)(1-methyl-1H-imidazol-5-yl)methyl]-3-phenylquinolin-2-yl}oxy)ethyl]propanamide] |  | 
9 | ~6 µM | 52% | 3.5 µM | Cn1cncc1C(O)(c1ccc(Cl)cc1)c1ccc2nc(OCCN)c(-c3ccccc3)c(Cl)c2c1 (stereo not drawn) [Example 52, [2-(2-Aminoethoxy)4-chloro-3-phenylquinolin-6-yl](4-chlorophenyl)(1-methyl-1H-imidazol-5-yl)methanol] |  | 
10 | 0.44 µM | 102% | 0.38 µM | Cn1cncc1C(O)(c1ccc(C(F)(F)F)nc1)c1ccc2nc(OCC(F)(F)F)c(-c3ccccc3)c(Cl)c2c1 (stereo not drawn) [Example 54, [4-Chloro-3-phenyl-2-(2,2,2-trifluoroethoxy)quinolin-6-yl](1-methyl-1H-imidazol-5-yl)[6-(trifluoromethyl)pyridin-3-yl]methanol] |  | 
11 | ~3 µM | 70% | 3.3 µM | Cn1cncc1C(O)(c1ccc2nc(Cl)c(-c3ccccc3)c(Cl)c2c1)c1ncccn1 (stereo not drawn) [Example 55, (2,4-Dichloro-3-phenylquinolin-6-yl)(1-methyl-1H-imidazol-5-yl)pyrimidin-2-ylmethanol] |  | 
12 | 0.023 µM | 102% | 0.06 µM | CON(C)c1nc2ccc(C(O)(c3ccc(C(F)(F)F)nc3)c3cncn3C)cc2c(Cl)c1-c1ccccc1 (stereo not drawn) [Example 56, {4-Chloro-2-[methoxy(methyl)amino]-3-phenylquinolin-6-yl}(1-methyl-1H-imidazol-5-yl)[6-(trifluoromethyl)pyridin-3-yl]methanol] |  | 
13 | 0.69 µM | 100% | 0.58 µM | CON(C)c1nc2ccc(C(O)(c3ccc(C(F)(F)F)nc3)c3cncn3C)cc2c(N(C)OC)c1-c1ccccc1 (stereo not drawn) [Example 57, {2,4-Bis[methoxy(methyl)amino]-3-phenylquinolin-6-yl}(1-methyl-1H-imidazol-5-yl)[6-(trifluoromethyl)pyridin-3-yl]methanol] |  | 
14 | 0.15 µM | 99% | 0.22 µM | CON(C)c1nc2ccc(C(O)(c3ccc(Cl)cc3)c3cncn3C)cc2c(Cl)c1-c1ccccc1 (stereo not drawn) [Example 58, {4-Chloro-2-[methoxy(methyl)amino]-3-phenylquinolin-6-yl}(4-chlorophenyl)(1-methyl-1H-imidazol-5-yl)methanol] |  | 
15 | > 6 µM | 26% | 0.0093 µM | COc1nc2c(C)cc(C(O)(c3ccc(C(F)(F)F)nc3)c3cncn3C)cc2c(Cl)c1-c1ccc(OC(F)(F)F)cc1 (stereo not drawn) [Example 63, (4-Chloro-2-methoxy-8-methyl-3-(4-(trifluoromethoxy)phenyl)quinolin-6-yl)(1-methyl-1H-imidazol-5-yl)(6-(trifluoromethyl)pyridin-3-yl)methanol] |  | 
16 | 1.4 µM | 84% | 2.2 µM | CN(C)c1nc2ccc(C(c3ccc(Cl)cc3)c3cncn3C)cc2c(Cl)c1-c1ccccc1 (stereo not drawn) [Example 71, 4-Chloro-6-((4-chlorophenyl)(1-methyl-1H-imidazol-5-yl)methyl)-N,N-dimethyl-3-phenylquinolin-2-amine] |  | 
17 | 0.63 µM | 100% | 0.89 µM | Cn1cncc1C(c1ccc(Cl)cc1)c1ccc2nc(C#N)c(-c3ccccc3)c(Cl)c2c1 (stereo not drawn) [Example 72, 4-Chloro-6-((4-chlorophenyl)(1-methyl-1H-imidazol-5-yl)methyl)-3-phenylquinoline-2-carbonitrile•TFA] |  | 

Row | Structure (SMILES) | IC50 [1, 3] | inhibition at 6 µM [1, 4] | Kd [2] | inhibition at 6 µM ([1]; read-out: RORγt reporter Assay, % inhibition @ 6 µM) | IC50 ([1]; RORγt reporter Assay, IC50 (µM), HEK293T cells)
18 | Cn1cncc1C(O)(c1ccc(Cl)cc1)c1ccc2nc(OCCN3CC3)c(-c3ccccc3)c(Cl)c2c1 (stereo not drawn) [Example 44, [2-(2-Aziridin-1-ylethoxy)-4-chloro-3-phenylquinolin-6-yl](4-chlorophenyl)(1-methyl-1H-imidazol-5-yl)methanol] |  |  | 5.4 µM | 31% | > 6 µM
